Like-named read-outs stand apart in the source and are kept apart here.
Columns and labels:
DU-145 = experiment: cells; conditions: Homo sapiens, DU-145, 48 h
RPMI-8226 = experiment: cells; conditions: Homo sapiens, RPMI-8226, 48 h
Melanoma subpanel = experiment: cells
Procedure: (§1) At the first stage of biological activity study, the antitumor activity screening of the selected compounds 2b, 2c, 2f, 2h, and 2j was performed according to the NCI DTP (USA) standard protocol at the concentrations ranging from 10^−4 to 10^−8 M toward 60 tumor cell lines. The percentage of growth was evaluated spectrophotometrically versus controls not treated with test agents after 48 h exposure and using SRB protein assay to estimate cell viability or growth. Dose–response parameters were calculated for each cell line: GI50—molar concentration of the compound that inhibits 50% net cell growth; TGI—molar concentration of the compound leading to the total inhibition; and LC50—molar concentration of the compound leading to 50% net cell death. Furthermore, mean graph midpoints (MG_MID) were calculated for each of the parameters, giving an average activity parameter over all cell lines for the tested compound. For the MG_MID calculation, insensitive cell lines were included with the highest concentration tested.
(§2) The selectivity index (SI) obtained by dividing the full panel MG-MID (mM) of the tested compound by their individual subpanel MG-MID (mM) was considered as a measure of selectivity of anticancer activity (Table 3).
(§3) Primary anticancer assay was performed on a panel of approximately sixty human tumor cell lines derived from nine neoplastic diseases, in accordance with the protocol of the Drug Evaluation Branch, National Cancer Institute, Bethesda. Tested compounds were added to the culture at a single concentration (10^−5 M) and the cultures were incubated for 48 h. End point determinations were made with a protein binding dye, sulforhodamine B (SRB). […] The percentage growth was evaluated spectrophotometrically versus controls not treated with test agents.
(§4) Dose–response parameters (GI50, TGI, LC50) were calculated for each compound. […] The drug concentration resulting in total growth inhibition (TGI) was calculated from Ti = Tz. The LC50 (concentration of drug resulting in a 50% reduction in the measured protein at the end of the drug treatment as compared to that at the beginning) indicating a net loss of cells following treatment was calculated from [(Ti − Tz)/Tz] × 100 = −50 (2). Values were calculated for each of these parameters if the level of activity was reached; however, if the effect was not reached or was excessive, the value for that parameter was expressed as more or less than the maximum or minimum concentration tested.

Colon Cancer subpanel = experiment: cells
Procedure: as §1, §2, §3, §4

[1] = system: Non-Small Cell Lung Cancer subpanel; experiment: cells
Procedure: as §1, §2, §3, §4

Leukemia subpanel = experiment: cells
Procedure: as §1, §2, §3, §4

Prostate Cancer subpanel = experiment: cells
Procedure: as §1, §2, §3, §4

Breast Cancer subpanel = experiment: cells
Procedure: as §1, §2, §3, §4

Ovarian Cancer subpanel = experiment: cells
Procedure: as §1, §2, §3, §4

Renal Cancer subpanel = experiment: cells
Procedure: as §1, §2, §3, §4

CNS Cancer subpanel = experiment: cells
Procedure: as §1, §2, §3, §4

60 tumor cell lines = experiment: NCI60 full panel MG_MID
Procedure: as §1, §3, §4

T-47D [2] = conditions: T-47D (Breast Cancer), 48 h, SRB
Colo 205 = experiment: NCI DTP 60 cell line screen, SRB
HOP-92 = experiment: NCI DTP 60 cell line screen, SRB
MOLT-4 [3] = system: MOLT-4
OVCAR-4 = experiment: NCI DTP 60 cell line screen, SRB
MOLT-4 [4] = experiment: cells; conditions: Homo sapiens, MOLT-4, 48 h
T-47D [5] = experiment: cells; conditions: Homo sapiens, T47D, 48 h
[6] = Homo sapiens, read-out: MG_MID, GI50
[7] = Homo sapiens, read-out: MG_MID, LC50

For `O=C(O)CCN1C(=O)/C(=C/C(Cl)=C/c2ccc([N+](=O)[O-])cc2)SC1=S` [Compound 2h, 3-{5-[(Z,2Z)-2-Chloro-3-(4-nitrophenyl)-2-propenylidene]-4-oxo-2-thioxothiazolidin-3-yl}propanoic acid], the GI50 (DU-145) was 0.421 µM, the CC50 (DU-145; read-out: LC50) was 52.3 µM and the GI50 (RPMI-8226) was 0.138 µM. The CC50 (RPMI-8226; read-out: LC50) was greater than 100 µM, the “SI (selectivity index), GI50” value (Melanoma subpanel) was 0.64 and the “SI (selectivity index), TGI” value (Melanoma subpanel) was 0.96. For the same molecule, the GI50 (Melanoma subpanel; [6]) was 2.45 µM, the CC50 (Melanoma subpanel; [7]) was 53.1 µM and the “MG_MID, TGI” value (Melanoma subpanel; Melanoma panel mean) was 13.9 µM. For the same molecule, the “SI (selectivity index), LC50” value (Melanoma subpanel; full panel MG_MID / Melanoma subpanel MG_MID) was 1.22, the “SI (selectivity index), GI50” value (Colon Cancer subpanel) was 3.43 and the “SI (selectivity index), TGI” value (Colon Cancer subpanel) was 0.57. The “MG_MID, TGI” value (Colon Cancer subpanel; Colon Cancer panel mean) was 23.3 µM, the GI50 (Colon Cancer subpanel; [6]) was 0.458 µM and the CC50 (Colon Cancer subpanel; [7]) was greater than 100 µM. The “SI (selectivity index), LC50” value (Colon Cancer subpanel; full panel MG_MID / Colon Cancer subpanel MG_MID) was less than 0.65, the “SI (selectivity index), GI50” value [1] was 0.59 and the “SI (selectivity index), TGI” value [1] was 1.38. For the same molecule, the GI50 [1, 6] was 2.65 µM, the CC50 [1, 7] was 61.4 µM and the “MG_MID, TGI” value ([1]; Non-Small Cell Lung Cancer panel mean) was 9.61 µM. The “SI (selectivity index), LC50” value ([1]; full panel MG_MID / Non-Small Cell Lung Cancer subpanel MG_MID) was 1.06, the “SI (selectivity index), GI50” value (Leukemia subpanel) was 10.83 and the “SI (selectivity index), TGI” value (Leukemia subpanel) was 2.45. The “TI (Therapeutic Index)” value (Leukemia subpanel; GI50 (normal blood lymphocyte)/GI50 (Leukemia Panel)) was 376.14, the GI50 (Leukemia subpanel; [6]) was 0.145 µM and the CC50 (Leukemia subpanel; [7]) was greater than 100 µM. For the same molecule, the “MG_MID, TGI” value (Leukemia subpanel; Leukemia panel mean) was 5.42 µM, the “SI (selectivity index), LC50” value (Leukemia subpanel; full panel MG_MID / Leukemia subpanel MG_MID) was less than 0.65 and the “SI (selectivity index), GI50” value (Prostate Cancer subpanel) was 2.77. The “SI (selectivity index), TGI” value (Prostate Cancer subpanel) was 1.55, the GI50 (Prostate Cancer subpanel; [6]) was 0.567 µM and the CC50 (Prostate Cancer subpanel; [7]) was 47.1 µM. For the same molecule, the “MG_MID, TGI” value (Prostate Cancer subpanel; Prostate Cancer panel mean) was 8.59 µM, the “SI (selectivity index), LC50” value (Prostate Cancer subpanel; full panel MG_MID / Prostate Cancer subpanel MG_MID) was 1.38 and the “SI (selectivity index), GI50” value (Breast Cancer subpanel) was 2.63. The “SI (selectivity index), TGI” value (Breast Cancer subpanel) was 0.63, the “MG_MID, TGI” value (Breast Cancer subpanel; Breast Cancer panel mean) was 21.1 µM and the GI50 (Breast Cancer subpanel; [6]) was 0.598 µM. The CC50 (Breast Cancer subpanel; [7]) was 49.6 µM, the “SI (selectivity index), LC50” value (Breast Cancer subpanel; full panel MG_MID / Breast Cancer subpanel MG_MID) was 1.31 and the “SI (selectivity index), GI50” value (Ovarian Cancer subpanel) was 0.74. For the same molecule, the “SI (selectivity index), TGI” value (Ovarian Cancer subpanel) was 1.05, the GI50 (Ovarian Cancer subpanel; [6]) was 2.13 µM and the CC50 (Ovarian Cancer subpanel; [7]) was 68.7 µM. The “MG_MID, TGI” value (Ovarian Cancer subpanel; Ovarian Cancer panel mean) was 12.7 µM, the “SI (selectivity index), LC50” value (Ovarian Cancer subpanel; full panel MG_MID / Ovarian Cancer subpanel MG_MID) was 0.95 and the “SI (selectivity index), TGI” value (Renal Cancer subpanel) was 2.77. For the same molecule, the GI50 (Renal Cancer subpanel; [6]) was 0.99 µM, the CC50 (Renal Cancer subpanel; [7]) was 23.8 µM and the “MG_MID, TGI” value (Renal Cancer subpanel; Renal Cancer panel mean) was 4.81 µM. The “SI (selectivity index), LC50” value (Renal Cancer subpanel; full panel MG_MID / Renal Cancer subpanel MG_MID) was 2.73, the “SI (selectivity index), GI50” value (CNS Cancer subpanel) was 0.50 and the “SI (selectivity index), TGI” value (CNS Cancer subpanel) was 0.75. The “MG_MID, TGI” value (CNS Cancer subpanel; CNS Cancer panel mean) was 17.7 µM, the GI50 (CNS Cancer subpanel; [6]) was 3.13 µM and the CC50 (CNS Cancer subpanel; [7]) was 84.9 µM. For the same molecule, the “SI (selectivity index), LC50” value (CNS Cancer subpanel; full panel MG_MID / CNS Cancer subpanel MG_MID) was 0.77, the GI50 (60 tumor cell lines; Homo sapiens, read-out: 60 lines MG_MID, GI50) was 1.57 µM and the CC50 (60 tumor cell lines; Homo sapiens, read-out: 60 lines MG_MID, LC50) was 65 µM. For the same molecule, the GI50 (60 tumor cell lines; Homo sapiens, read-out: GI50 concentration range) was 0.01 to 0.02 µM, the “60 lines MG_MID, TGI” value (60 tumor cell lines; mean over all cell lines) was 13.3 µM and the TGI (T-47D [2]) was greater than 100 µM. It also gave a TGI (Colo 205; Colo 205 (Colon Cancer), 48 h, SRB) greater than 100 µM, a GI50 (Colo 205; Homo sapiens, COLO 205, 48 h) of 0.35 µM and a CC50 (Colo 205; Homo sapiens, COLO 205, 48 h, read-out: LC50) greater than 100 µM. For the same molecule, the TGI (HOP-92; HOP-92 (Non-Small Cell Lung Cancer), 48 h, SRB) was 18.3 µM, the GI50 (HOP-92; Homo sapiens, HOP-92, 48 h) was 4.81 µM and the CC50 (HOP-92; Homo sapiens, HOP-92, 48 h, read-out: LC50) was 50.7 µM. The “TI (Therapeutic Index)” value (MOLT-4 [3]; GI50 (normal blood lymphocyte)/GI50 (MOLT-4)) was 3408.75, the TGI (MOLT-4 [3]; MOLT-4 (Leukemia), 48 h, SRB) was 19.7 µM and the GI50 (OVCAR-4; Homo sapiens, OVCAR-4, 48 h) was 2.66 µM. It also gave a CC50 (OVCAR-4; Homo sapiens, OVCAR-4, 48 h, read-out: LC50) of 56.2 µM, a TGI (OVCAR-4; OVCAR-4 (Ovarian Cancer), 48 h, SRB) of 14.9 µM and a GI50 (MOLT-4 [4]) of 0.016 µM. For the same molecule, the CC50 (MOLT-4 [4]; read-out: LC50) was greater than 100 µM, the GI50 (T-47D [5]) was 0.363 µM and the CC50 (T-47D [5]; read-out: LC50) was greater than 100 µM.

From PMC8161026, “Synthesis and Anticancer Activity Evaluation of 5-[2-Chloro-3-(4-nitrophenyl)-2-propenylidene]-4-thiazolidinones” (Molecules, 2021)
